Assay results reported in paper PMC9069370, “Integrated Design of a Membrane‐Lytic Peptide‐Based Intravenous Nanotherapeutic Suppresses Triple‐Negative Breast Cancer” (Advanced Science, 2022).
Peptide text beside a SMILES is read from it.

Columns and labels:
[1] = test system: HMLER; assay: cells; type: cell-based, human; conditions: 72 h
Description: (§1) […], and MCF-10A cells were maintained in MEGM with supplements and growth factors bovine pituitary extract, hydrocortisone, human epidermal growth factor, insulin, and gentamicin/amphotericin-B.

[2] = test system: HMLER‐shEcad; assay: cells; type: cell-based, human; conditions: 72 h
Description: as §1

[3] = test system: MCF‐10A; assay: cells; type: cell-based, human; conditions: 72 h
Description: as §1

[4] = test system: U2OS; type: cell-based, human; conditions: 72 h
[5] = test system: HEK293T; assay: cells; type: cell-based, human; conditions: 72 h
[6] = Tryptophan fluorescent binding assay; conditions: tryptophan fluorescence; 50 µM peptide, lipid titrated 0-5000 µM; phosphate buffered saline 1X, pH 7.4; values as lipid per peptide
Procedure: 50 µM ACP peptides and varied concentrations (concentrations: 0, 25, 50, 100, 150, 200, 250, 500, 1250, and 2500 µM) of POPC or POPC:POPG (3:1 ratio) large unilamellar vesicles were prepared in 10 mM phosphate buffer (pH 7.0). The solutions were measured after 1 h of incubation. Excitation was fixed at 280 nm (slit 9 nm) and emission was collected from 300 to 450 nm (slit 9 nm). The spectra were recorded using Cytation 5 Cell Imaging Multi‐Mode Reader from BioTek and were averaged by three scans.
Lipid Concentration-induced
Name Sequence† 50% Peptide Binding (L/P)
Extended Data Table 3 | Tryptophan binding assay. […]
peptide binding onto liposome. 50 µM peptides were fixed and incubated with titrated lipid (POPC vesicle […]
phosphate buffered saline (1X, pH 7.4). The lipid concentration that causes 50 % peptide binding was determined using tryptophan fluorescent binding assay and the values are shown as lipid per peptide.

[7] = ANTS/DPX liposome leakage assay; conditions: 0.5 mM vesicles, peptide 0-20 µM, 3 h incubation, lipid per peptide; for Peptide Concentration-induced 50 % ANTS/DPX leakage at pH 4.8 (L/P), 3POPC/1POPG Vesicle / Peptide Concentration-induced 50 % ANTS/DPX leakage at pH 4.8 (L/P), POPC Vesicle: HCl-adjusted PBS 1X pH 4.8; for Peptide Concentration-induced 50 % ANTS/DPX leakage at pH 7.4 (L/P), 3POPC/1POPG Vesicle / Peptide Concentration-induced 50 % ANTS/DPX leakage at pH 7.4 (L/P), POPC Vesicle: PBS 1X pH 7.4, high ratio = more potent
Procedure: Vesicle preparation: 5 mM ANTS and 12.5 mM DPX were entrapped in 0.1 µm diameter extruded vesicles (either POPC or POPC/POPG at a ratio of 3:1) with lipids. Gel filtration chromatography of Sephadex G‐100 was used to remove external free ANTS/DPX from LUVs with entrapped contents. LUVs were diluted to 0.5 mM and used to measure the leakage activity by the addition of aliquots of ACPs. Leakage was measured after 3 h incubation. 10% Triton was used as the positive control to measure the maximum leakage of the vesicle. Fluorescence emission spectra were recorded using excitation and emission wavelength of 350 and 510 nm for ANTS/DPX using a BioTek Synergy H1 Hybrid Multi‐Mode Reader.
Peptide Concentration-induced Peptide Concentration-induced
Name Sequence† 50 % ANTS/DPX leakage 50 % ANTS/DPX leakage at pH 7.4 (L/P) at pH 4.8 (L/P)
POPC Vesicle 3POPC/1POPG Vesicle POPC Vesicle 3POPC/1POPG Vesicle […]
Extended Data Table 4 | Peptide concentration-induced 50 % ANTS/DPX liposome leakage. 0.5 mM POPC and 3POPC/1POPG vesicles were fixed and incubated with titrated peptide concentration (0, 0.02, […]
hydrochloric acid-adjusted phoshate buffered saline (1X, pH 4.8). The values are shown as lipid per

SMILES: CC(C)C[C@H](NC(=O)CN)C(=O)N[C@@H](CC(C)C)C(=O)N[C@@H](CCC(=O)O)C(=O)N[C@@H](CC(C)C)C(=O)N[C@@H](CC(C)C)C(=O)N[C@@H](CCCCN)C(=O)N[C@@H](CC(C)C)C(=O)N[C@@H](CC(C)C)C(=O)N[C@@H](CC(C)C)C(=O)N[C@@H](Cc1c[nH]cn1)C(=O)N[C@@H](C)C(=O)N[C@@H](C)C(=O)NCC(=O)N[C@@H](Cc1c[nH]c2ccccc12)C(N)=O [EKH] (H-GLLELLKLLLHAAGW-NH2)
- IC50 [1]: 2.75 ± 0.07 µM
- IC50 [2]: 2.18 ± 0.31 µM
- IC50 [3]: 7.9 ± 0.42 µM
- IC50 [4]: 23.8 ± 0.81 µM
- IC50 [5]: 6.65 ± 1.34 µM
- Lipid Concentration-induced 50% Peptide Binding (L/P), 3POPC/1POPG Vesicle [6]: 0.19 L/P
- Lipid Concentration-induced 50% Peptide Binding (L/P), POPC Vesicle [6]: 0.75 L/P
- Peptide Concentration-induced 50 % ANTS/DPX leakage at pH 4.8 (L/P), 3POPC/1POPG Vesicle [7]: 88 L/P
- Peptide Concentration-induced 50 % ANTS/DPX leakage at pH 4.8 (L/P), POPC Vesicle [7]: 55 L/P
- Peptide Concentration-induced 50 % ANTS/DPX leakage at pH 7.4 (L/P), 3POPC/1POPG Vesicle [7]: 365 L/P
- Peptide Concentration-induced 50 % ANTS/DPX leakage at pH 7.4 (L/P), POPC Vesicle [7]: 608 L/P

SMILES: CC(C)C[C@H](NC(=O)CN)C(=O)N[C@@H](CC(C)C)C(=O)N[C@@H](CCC(=O)O)C(=O)N[C@@H](CC(C)C)C(=O)N[C@@H](CC(C)C)C(=O)N[C@@H](CCCCN)C(=O)N[C@@H](CC(C)C)C(=O)N[C@@H](CC(C)C)C(=O)N[C@@H](CC(C)C)C(=O)N[C@@H](CCCCN)C(=O)N[C@@H](C)C(=O)N[C@@H](C)C(=O)NCC(=O)N[C@@H](Cc1c[nH]c2ccccc12)C(N)=O [EKK] (H-GLLELLKLLLKAAGW-NH2)
- IC50 [1]: 1.72 ± 0.21 µM
- IC50 [2]: 1.19 ± 0.4 µM
- IC50 [3]: 1.7 ± 0.11 µM
- IC50 [4]: 12.2 ± 1.84 µM
- IC50 [5]: 3.35 ± 0.49 µM
- Lipid Concentration-induced 50% Peptide Binding (L/P), 3POPC/1POPG Vesicle [6]: 0.63 L/P
- Lipid Concentration-induced 50% Peptide Binding (L/P), POPC Vesicle [6]: 1.50 L/P
- Peptide Concentration-induced 50 % ANTS/DPX leakage at pH 4.8 (L/P), 3POPC/1POPG Vesicle [7]: 219 L/P
- Peptide Concentration-induced 50 % ANTS/DPX leakage at pH 4.8 (L/P), POPC Vesicle [7]: 60 L/P
- Peptide Concentration-induced 50 % ANTS/DPX leakage at pH 7.4 (L/P), 3POPC/1POPG Vesicle [7]: 235 L/P
- Peptide Concentration-induced 50 % ANTS/DPX leakage at pH 7.4 (L/P), POPC Vesicle [7]: 1095 L/P

SMILES: CC(C)C[C@H](NC(=O)CN)C(=O)N[C@@H](CC(C)C)C(=O)N[C@@H](Cc1c[nH]cn1)C(=O)N[C@@H](CC(C)C)C(=O)N[C@@H](CC(C)C)C(=O)N[C@@H](CCC(=O)O)C(=O)N[C@@H](CC(C)C)C(=O)N[C@@H](CC(C)C)C(=O)N[C@@H](CC(C)C)C(=O)N[C@@H](CCC(=O)O)C(=O)N[C@@H](C)C(=O)N[C@@H](C)C(=O)NCC(=O)N[C@@H](Cc1c[nH]c2ccccc12)C(N)=O [HEE] (H-GLLHLLELLLEAAGW-NH2)
- IC50 [1]: 6.5 ± 0.71 µM
- IC50 [2]: 4.95 ± 0.49 µM
- IC50 [3]: 58 ± 41 µM
- IC50 [4]: 47.5 ± 11 µM
- IC50 [5]: 10.2 ± 0.2 µM
- Lipid Concentration-induced 50% Peptide Binding (L/P), 3POPC/1POPG Vesicle [6]: 0.50 L/P
- Lipid Concentration-induced 50% Peptide Binding (L/P), POPC Vesicle [6]: 0.58 L/P
- Peptide Concentration-induced 50 % ANTS/DPX leakage at pH 4.8 (L/P), 3POPC/1POPG Vesicle [7]: 122 L/P
- Peptide Concentration-induced 50 % ANTS/DPX leakage at pH 4.8 (L/P), POPC Vesicle [7]: 100 L/P
- Peptide Concentration-induced 50 % ANTS/DPX leakage at pH 7.4 (L/P), 3POPC/1POPG Vesicle [7]: 792 L/P
- Peptide Concentration-induced 50 % ANTS/DPX leakage at pH 7.4 (L/P), POPC Vesicle [7]: 876 L/P
